# Entries after “also recorded” stand apart in the source; their conditions may differ.
# How the values were obtained:
# recombinant human SIRT1 = biological target: T1, recombinant human SIRT1 (Homo sapiens, UniProt Q96EB6); assay: SIRT1 fluorescent deacetylation assay (p53-382 acetylated peptide); type: biochemical; settings: 25 μM NAD+, 25 μM p53-382 acetylated peptide, compounds at 100 μM
# T1 sequence (Q96EB6 1-747): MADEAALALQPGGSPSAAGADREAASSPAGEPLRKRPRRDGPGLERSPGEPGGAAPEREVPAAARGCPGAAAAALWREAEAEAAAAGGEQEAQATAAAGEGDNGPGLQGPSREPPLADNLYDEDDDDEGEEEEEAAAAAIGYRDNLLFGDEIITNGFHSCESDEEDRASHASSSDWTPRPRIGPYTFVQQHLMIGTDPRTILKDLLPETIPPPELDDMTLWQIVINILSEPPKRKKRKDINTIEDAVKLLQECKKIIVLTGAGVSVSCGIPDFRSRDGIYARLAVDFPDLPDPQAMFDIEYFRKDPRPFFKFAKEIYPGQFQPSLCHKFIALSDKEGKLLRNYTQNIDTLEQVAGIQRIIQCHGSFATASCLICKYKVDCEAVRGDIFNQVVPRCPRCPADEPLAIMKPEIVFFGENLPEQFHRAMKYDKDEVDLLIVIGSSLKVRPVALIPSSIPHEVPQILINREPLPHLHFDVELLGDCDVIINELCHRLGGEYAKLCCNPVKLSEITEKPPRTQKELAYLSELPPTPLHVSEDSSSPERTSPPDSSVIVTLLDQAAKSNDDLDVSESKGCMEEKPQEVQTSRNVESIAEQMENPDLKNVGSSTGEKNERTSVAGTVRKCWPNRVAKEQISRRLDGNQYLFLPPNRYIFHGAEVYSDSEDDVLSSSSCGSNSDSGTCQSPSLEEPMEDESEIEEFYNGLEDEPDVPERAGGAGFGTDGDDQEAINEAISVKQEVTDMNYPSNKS
# From the text: Lines represent non-linear least-squares fits to the Michaelis-Menten equation. […] Lines represent non-linear least-squares fits to the Michaelis-Menten equation. […] Error bars are standard errors of the mean.
# To identify compounds that modulate SIRT1 activity, a number of small molecule libraries were screened using a fluorescent deacetylation assay in 96-well plates^26. The substrate used in the assay was a fluorogenic peptide based on the sequence encompassing the p53-K382 acetylation site, a known target of SIRT1 in vivo^20,21,27. […] The small molecule libraries included analogues of nicotinamide, ε-acetyl lysine, NAD^+, nucleotides, nucleotide analogues and purinergic ligands.
# His6-tagged recombinant SIRT1 and GST-tagged recombinant Sir2 were prepared as previously described^26. From 0.1 to 1 μg of SIRT1 and 1.5 μg of Sir2 were used per deacetylation assay (in 50 μl total reaction) as previously described^26.
# Themed compound libraries (BIOMOL) were used for primary and secondary screening. Most polyphenol compounds were dissolved at 10 mM in dimethylsulfoxide (DMSO) on the day of the assay. For water soluble compounds and negative controls, 1% v/v DMSO was added to the assay. […] Unless otherwise indicated all initial rate measurements were means of three or more replicates, obtained with single incubation times, at which point 5% or less of the substrate initially present had been deacetylated. Calculation of net fluorescence increases included subtraction of a blank value, which in the case of Sir2 was obtained by omitting the enzyme from the reaction and in the case of SIRT1 by adding an inhibitor (200 μM suramin or 1 mM nicotinamide) to the reaction prior to the acetylated substrate. […] All error bars represent the standard error of the mean.
# S. cerevisiae = assay: Yeast replicative lifespan; type: cell-based; settings: 10 μM; 2% (w/v) glucose YPD; untreated 100%
# Procedure: Average lifespan for wild type, 22.9 generations, quercetin, 23.4; piceatannol. […]
# All yeast strains were grown at 30° C. in complete yeast extract/bactopeptone, 2.0% (w/v) glucose (YPD) medium except where stated otherwise. Calorie restriction was induced in 0.5% glucose. Synthetic complete (SC) medium consisted of 1.67% yeast nitrogen base, 2% glucose, 40 mg/litre each of auxotrophic markers. SIR2 was integrated in extra copy and disrupted as described^5. Other strains are described elsewhere^26. For cellular deacetylation assays, HeLa S3 cells were used. U20S osteosarcoma and human embryonic kidney (HEK 293) cells were cultured adherently in Dulbecco's Modified Eagle's Medium (DMEM) containing 10% fetal calf serum (FCS) with 1.0% glutamine and 1.0% penecillin/streptomycin. HEK 293 overexpressing dominant negative SIRT1 H363Y was a gift of R. Frye (U. Pittsburgh).
# Lifespan measurements were performed using PSY316AT MATα as previously described^35. All compounds for lifespan analyses were dissolved in 95% ethanol and plates were dried and used within 24 hours. Prior to lifespan analysis, cells were pre-incubated on their respective media for at least 15 hours. Following transfer to a new plate, cells were equilibrated on the medium for a minimum of 4 hours prior to micro-manipulating them. At least 30 cells were examined per experiment and each experiment was performed at least twice. Statistical significance of lifespan differences was determined using the Wilcoxon rank sum test. Differences are stated to be significant when the confidence is higher than 95%.
# C. elegans = C. elegans lifespan; type: in vivo; settings: N2 worms, E. coli as food; untreated 100%
# Procedure: Thus, the presence of resveratrol in the growth media of C. elegans extends their lifespan.
# Bristol N2 (Caenorhabditis Genetics Center) was used as the wild-type strain. The sir-2.1 mutant strain was generated by backcrossing VC199 (sir-2.1(ok434)) to N2 four times. Cultures were grown on standard NGM media and maintained on E. coli strain OP50. For the lifespan assays, synchronized animals were transferred to treatment plates as young adults (2 d after hatching, day 0 of assay), and were transferred to fresh treatment plates every 2 days for the first 6 to 8 days of the assay. […] For some lifespan trials, heat-killed OP50 were used as a food source. OP50 cultures were heated to 65° C. for 30 minutes, then pelleted and resuspended in 1/10 volume in S Basal supplemented with 10 mM MgSO4. In all assays, worms were monitored daily for mortality by gently probing with a platinum pick. Assays were performed at 24° C. To assay worm feeding rates, worms at the indicated stages were placed on treatment plates (no FUdR) for 4-5 hours, then videoed for 1 minute using a Pixelink PL-662 camera. The frame rate was slowed and the pumping rate of the pharynx was counted. To assay fecundity, gravid hermaphrodites (5 per plate, raised from synchronized L1s on normal or treatment plates) were allowed to lay eggs on their respective media for 5 hours, and the total number of eggs was counted.
# [1] = Solution stability from SIRT1 fold-stimulation of aged stock solutions; type: physicochemical; settings: ethanol stock 2.5 mM, room temperature, nitrogen atmosphere
# From the text: The fold-stimulation (ratio to control) obtained with a compound diluted from an aged stock solution was compared to an identical dilution from a stock solution freshly prepared from the solid compound. “t1/2” is defined as the time required for the SIRT1 fold-stimulation of the compound from the aged solution to decay to one-half of that obtained from a freshly prepared solution. […] Stocks were aged by storage at room temperature, in glass vials, under a nitrogen atmosphere.
compound,measurement,setting,value
"CC(=O)Oc1cc(O)cc(/C=C/c2ccc(O)cc2)c1 [BML-221, 3,4′-Dihydroxy-5-acetoxy-trans-stilbene]",SIRT1 stimulating activity (in words),recombinant human SIRT1,diminished in in vitro SIRT1 activating ability
same,% change in yeast replicative lifespan relative to untreated organisms (10 μM),S. cerevisiae,165%
same,% change in C. elegans lifespan relative to untreated organisms (100/500 μM),C. elegans,>100%
same,solution stability relative to resveratrol,[1],strongly increased; also recorded: vast improvement in solution stability relative to resveratrol

# Source: patent publication US20060276393A1, “Novel compositions for preventing and treating neurodegenerative and blood coagulation disorders” (Sirtris Pharmaceuticals, Inc., priority 2005, published 2006)
